These results are taken from patent US20230295197A1, “STAT5 and STAT6 Degraders and Uses Thereof” (REGENTS OF THE UNIVERSITY OF MICHICAN, priority 2022, published 2023).

The structures appear in SMILES notation. *1 amine or outer side, *2 acyl side, *3 side chain or, on linkers, in order; H or OH if unused. Where a SMILES comes first, the peptide text is derived from it. [ ]: non-standard residue; d: D form. The star is where a group is joined. Benzothienyl2CO(5-CF2PO3H2) = O=C(c1cc2cc(C(F)(F)P(=O)(O)O)ccc2s1)*; βAla(N-(4-Br-phenyl)) = O=C(CCN(c1ccc(Br)cc1)[*:1])[*:2]; NHBn(4-(4-Me-thiazol-5-yl)) = Cc1ncsc1-c1ccc(CN*)cc1; NH(CH2)9CO = O=C(CCCCCCCCCN[*:1])[*:2]; NH(CH2)8CO = O=C(CCCCCCCCN[*:1])[*:2]; Hyp = O=C(O)[C@@H]1C[C@@H](O)CN1; Tle = CC(C)(C)[C@H](N)C(=O)O; Aoc = NCCCCCCCC(=O)O; Ahp = NCCCCCCC(=O)O; Ahx = NCCCCCC(=O)O; Ava = NCCCCC(=O)O

The first assay addresses T1, STAT6 (Homo sapiens, UniProt P42226).
T1 construct: endogenous in cells; host or cells: MOLM-16, KU-812, SKNO1, MB231, L1236
T1 sequence (P42226 1-847): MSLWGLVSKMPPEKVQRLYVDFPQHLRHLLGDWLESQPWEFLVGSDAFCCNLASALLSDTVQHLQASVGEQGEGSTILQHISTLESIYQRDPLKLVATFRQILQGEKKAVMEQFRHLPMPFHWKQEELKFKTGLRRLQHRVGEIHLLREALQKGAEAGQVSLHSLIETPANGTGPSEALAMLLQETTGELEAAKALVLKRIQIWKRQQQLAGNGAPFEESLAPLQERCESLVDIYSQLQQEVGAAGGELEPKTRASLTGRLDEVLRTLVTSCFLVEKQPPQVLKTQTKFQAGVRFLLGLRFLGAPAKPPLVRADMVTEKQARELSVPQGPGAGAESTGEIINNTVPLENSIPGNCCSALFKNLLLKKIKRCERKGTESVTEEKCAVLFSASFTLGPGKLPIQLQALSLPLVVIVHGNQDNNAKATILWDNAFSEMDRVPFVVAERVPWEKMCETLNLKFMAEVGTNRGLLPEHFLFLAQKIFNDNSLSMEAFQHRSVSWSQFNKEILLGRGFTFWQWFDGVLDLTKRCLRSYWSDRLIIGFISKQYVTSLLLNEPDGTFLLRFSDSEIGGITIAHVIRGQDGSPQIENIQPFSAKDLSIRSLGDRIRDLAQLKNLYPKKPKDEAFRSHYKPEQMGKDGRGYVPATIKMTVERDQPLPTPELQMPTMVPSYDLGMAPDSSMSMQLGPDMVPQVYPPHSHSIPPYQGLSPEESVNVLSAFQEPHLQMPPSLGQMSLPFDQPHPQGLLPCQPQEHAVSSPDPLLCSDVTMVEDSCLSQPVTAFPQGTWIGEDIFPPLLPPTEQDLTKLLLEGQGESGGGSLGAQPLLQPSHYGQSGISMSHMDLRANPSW
In words: Immunoblotting (Western blot) analysis of STAT6 degradation efficiency of degraders in treated cells. It is filed as cell-based. Particulars: MB231 cells, read-out: DC50 S6 MB231. How it is done:
Evaluation of the degradation efficiency of degraders may be accomplished by immunoblotting analysis. The representative general protocol is the following:
Cells are maintained in the appropriate culture medium with 10% FBS at 37° C. and an atmosphere of 5% CO2. Cell lines are used within three months of thawing fresh vials. Cells are lysed 1× Cell Lysis Buffer (Cell Signaling Technology, #9803), resolved by SDS-PAGE NuPAGE gel (Thermo Fisher Scientific), and transferred to a PVDF membrane (Millipore). Membranes are blocked using Odyssey TBS Blocker Buffer (LI-COR). IRDye 680RD and 800CW Dye-labeled secondary antibodies (LI-COR) are used. The washed membranes are scanned using Odyssey CLx imager (LI-COR). The intensity of Western blot signaling is quantitated using the Odyssey software. Primary antibodies used are: STAT5 Rabbit mAb (Cell Signaling Technology, #94205), STAT6 Rabbit mAb (Cell Signaling Technology, #5397) and GAPDH mouse monoclonal antibody (Santa Cruz Biotechnology, sc-47724).
To evaluate the degradation efficiency of degraders, immunoblotting analysis was performed. The general protocol is the following.
About 1 million cells for each data point were treated with compounds at indicated concentrations and durations. Untreated and treated cells in cell culture medium were transferred into tubes, followed by centrifugation at 3,000 rpm and 4° C. for 6 min Supernatants were removed from tubes and radioimmunoprecipitation assay (RIPA) lysis buffer supplemented with 1% protease inhibitor cocktail (Fisher Scientific cat. PI87786) and phosphatase inhibitor (Roche cat. 04906837001) were added to tubes containing the remaining cell pellets. The tubes were then left on ice for 30 min and placed in a −80° C. freezer. Subsequently they were thawed in 37° C. water, then centrifuged at 14,000 rpm for 15 min and the cell lysates transferred to new tubes. The concentration of total proteins in each tube was calculated using the Pierce BCA protein Assay kit (cat. 23225). Based on the calculated protein concentration, cell lysates containing approximately the same amount of proteins were transferred to new tubes, then distilled water and 4× Protein Sample Loading Buffer for Western Blots (LI-COR cat. 928-40004) supplemented with 20% of mercaptoethanol (Sigma Aldrich cat. M6250) were added on ice. The cell lysates were then reduced and denatured at 95° C. for 5 min. From the tubes containing cell lysates an equal amount of protein samples (20-40 μg) was loaded into precast 8%, 10%, 4%-12%, or 4%-20% Tris-glycine gels (Novex) filled with Tris-glycine SDS running buffer. After the proteins were resolved, they were transferred onto Immobile-FL PVDF Membrane (Millipore Sigma cat. IPFL00010), using Mini Trans-Blot Electrophoretic Transfer Cell (Bio-Rad 1703930). The membranes were blocked with Intercept Blocking Buffer (LI-COR cat. 927-70001) in LI-COR Western Blot boxes for 1 h at rt. The membranes were washed with 1× Tris-buffered saline-Tween-20 (TBST, 1× solution was made from 20×TBST solution, ThermoFisher Scientific cat. 28360) for 5 min 4 times. The membranes were incubated overnight at 4° C. in Intercept Blocking Buffer supplemented with primary antibodies (normally antibody:buffer 1:1000) and Tween-20. The membranes were washed with TBST for 5 min 4 times and were incubated with Intercept Blocking Buffer supplemented with IRDye 800CE Secondary Antibodies, IRDye 680RD Secondary Antibodies (LI-COR biosciences), Tween-20, and 10% SDS solution, for 1 h at rt. The membranes were then washed with TBST for 5 min 4 times and rinsed with deionized water before drying and scanning with Odyssey Dlx Amazing System (LI-COR). The immunoblots were finally quantified by the software.
For orientation: A western blot detects proteins with antibodies after separation by electrophoresis.
The term DC50 denotes the concentration at which degradation of the target reaches its halfway point. Turning to `CC(C)(C)[C@H](NC(=O)c1cc2cc(C(F)(F)P(=O)(O)O)ccc2s1)C(=O)N1CCC[C@H]1C(=O)N(CCC(=O)NCCCCCCCCCC#Cc1cccc2c1CN(C1CCC(=O)NC1=O)C2=O)c1ccc(Br)cc1` (stereo partly drawn) [Compound 402, ((2-(((2S)-1-((2S)-2-((4-bromophenyl)(3-((11-(2-(2,6-dioxopiperidin-3-yl)-1-oxoisoindolin-4-yl)undec-10-yn-1-yl)amino)-3-oxopropyl)carbamoyl)pyrrolidin-1-yl)-3,3-dimethyl-1-oxobutan-2-yl)carbamoyl)benzo[b]thiophen-5-yl)difluoromethyl)phosphonic acid], the DC50 is above 10 µM.
As for `Cc1cc([C@H](C(=O)N2C[C@H](O)C[C@H]2C(=O)N[C@@H](CC(=O)NCCCCCCCCCCNC(=O)CCN(C(=O)[C@@H]2CCCN2C(=O)[C@@H](NC(=O)c2cc3cc(C(F)(F)P(=O)(O)O)ccc3s2)C(C)(C)C)c2ccc(Br)cc2)c2ccc(-c3scnc3C)cc2)C(C)C)on1` [Compound 407, ((2-(((S)-1-((S)-2-((4-bromophenyl)(3-((10-((S)-3-((2S,4R)-4-hydroxy-1-((R)-3-methyl-2-(3-methylisoxazol-5-yl)butanoyl)pyrrolidine-2-carboxamido)-3-(4-(4-methylthiazol-5-yl)phenyl)propanamido)decyl)amino)-3-oxopropyl)carbamoyl)pyrrolidin-1-yl)-3,3-dimethyl-1-oxobutan-2-yl)carbamoyl)benzo[b]thiophen-5-yl)difluoromethyl)phosphonic acid], the DC50 was above 10 µM.
Same read-out and setting: the result for `Cc1cc([C@H](C(=O)N2C[C@H](O)C[C@H]2C(=O)N[C@@H](CC(=O)NCCCCCCCCNC(=O)CCN(C(=O)[C@@H]2CCCN2C(=O)[C@@H](NC(=O)c2cc3cc(C(F)(F)P(=O)(O)O)ccc3s2)C(C)(C)C)c2ccc(Br)cc2)c2ccc(-c3scnc3C)cc2)C(C)C)on1` [Compound 408, ((2-(((S)-1-((S)-2-((4-bromophenyl)(3-((8-((S)-3-((2S,4R)-4-hydroxy-1-((R)-3-methyl-2-(3-methylisoxazol-5-yl)butanoyl)pyrrolidine-2-carboxamido)-3-(4-(4-methylthiazol-5-yl)phenyl)propanamido)octyl)amino)-3-oxopropyl)carbamoyl)pyrrolidin-1-yl)-3,3-dimethyl-1-oxobutan-2-yl)carbamoyl)benzo[b]thiophen-5-yl)difluoromethyl)phosphonic acid] reads above 10 µM.
Consider `Cc1cc([C@H](C(=O)N2C[C@H](O)C[C@H]2C(=O)N[C@@H](CC(=O)NCCOCCOCCOCCNC(=O)CCN(C(=O)[C@@H]2CCCN2C(=O)[C@@H](NC(=O)c2cc3cc(C(F)(F)P(=O)(O)O)ccc3s2)C(C)(C)C)c2ccc(Br)cc2)c2ccc(-c3scnc3C)cc2)C(C)C)on1` [Compound 409, ((2-(((S)-1-((S)-2-((4-bromophenyl)((S)-1-((2S,4R)-4-hydroxy-1-((R)-3-methyl-2-(3-methylisoxazol-5-yl)butanoyl)pyrrolidin-2-yl)-3-(4-(4-methylthiazol-5-yl)phenyl)-1,5,19-trioxo-9,12,15-trioxa-2,6,18-triazahenicosan-21-yl)carbamoyl)pyrrolidin-1-yl)-3,3-dimethyl-1-oxobutan-2-yl)carbamoyl)benzo[b]thiophen-5-yl)difluoromethyl)phosphonic acid], for which the DC50 was above 10 µM.

Still in this assay, the particulars now being: read-out: DC50 S6 MB231, MB231 cells.
In the case of `Cc1ncsc1-c1ccc(CNC(=O)[C@@H]2C[C@@H](O)CN2C(=O)[C@@H](NC(=O)CCCCCCCCCNC(=O)CCN(C(=O)[C@@H]2CCCN2C(=O)[C@@H](NC(=O)c2cc3cc(C(F)(F)P(=O)(O)O)ccc3s2)C(C)(C)C)c2ccc(Br)cc2)C(C)(C)C)cc1` [Compound 396] ({Benzothienyl2CO(5-CF2PO3H2)}-[Tle]P[βAla(N-(4-Br-phenyl))][NH(CH2)9CO][Tle][Hyp]-{NHBn(4-(4-Me-thiazol-5-yl))}), the 50% degradation concentration (DC50) is above 10 µM.
On the same count and under the same terms, in the case of `Cc1ncsc1-c1ccc(CNC(=O)[C@@H]2C[C@@H](O)CN2C(=O)[C@@H](NC(=O)CCCCCCCCNC(=O)CCN(C(=O)[C@@H]2CCCN2C(=O)[C@@H](NC(=O)c2cc3cc(C(F)(F)P(=O)(O)O)ccc3s2)C(C)(C)C)c2ccc(Br)cc2)C(C)(C)C)cc1` [Compound 397] ({Benzothienyl2CO(5-CF2PO3H2)}-[Tle]P[βAla(N-(4-Br-phenyl))][NH(CH2)8CO][Tle][Hyp]-{NHBn(4-(4-Me-thiazol-5-yl))}) it was above 10 µM; in that of `Cc1ncsc1-c1ccc(CNC(=O)[C@@H]2C[C@@H](O)CN2C(=O)[C@@H](NC(=O)CCCCCCCNC(=O)CCN(C(=O)[C@@H]2CCCN2C(=O)[C@@H](NC(=O)c2cc3cc(C(F)(F)P(=O)(O)O)ccc3s2)C(C)(C)C)c2ccc(Br)cc2)C(C)(C)C)cc1` [Compound 398] ({Benzothienyl2CO(5-CF2PO3H2)}-[Tle]P[βAla(N-(4-Br-phenyl))][Aoc][Tle][Hyp]-{NHBn(4-(4-Me-thiazol-5-yl))}), above 10 µM.
Still for that read-out and setting: the result for `Cc1ncsc1-c1ccc(CNC(=O)[C@@H]2C[C@@H](O)CN2C(=O)[C@@H](NC(=O)CCCCCCNC(=O)CCN(C(=O)[C@@H]2CCCN2C(=O)[C@@H](NC(=O)c2cc3cc(C(F)(F)P(=O)(O)O)ccc3s2)C(C)(C)C)c2ccc(Br)cc2)C(C)(C)C)cc1` [Compound 399] ({Benzothienyl2CO(5-CF2PO3H2)}-[Tle]P[βAla(N-(4-Br-phenyl))][Ahp][Tle][Hyp]-{NHBn(4-(4-Me-thiazol-5-yl))}) reads above 10 µM; that for `Cc1ncsc1-c1ccc(CNC(=O)[C@@H]2C[C@@H](O)CN2C(=O)[C@@H](NC(=O)CCCCCNC(=O)CCN(C(=O)[C@@H]2CCCN2C(=O)[C@@H](NC(=O)c2cc3cc(C(F)(F)P(=O)(O)O)ccc3s2)C(C)(C)C)c2ccc(Br)cc2)C(C)(C)C)cc1` [Compound 400] ({Benzothienyl2CO(5-CF2PO3H2)}-[Tle]P[βAla(N-(4-Br-phenyl))][Ahx][Tle][Hyp]-{NHBn(4-(4-Me-thiazol-5-yl))}), above 10 µM.
With `Cc1ncsc1-c1ccc(CNC(=O)[C@@H]2C[C@@H](O)CN2C(=O)[C@@H](NC(=O)CCCCNC(=O)CCN(C(=O)[C@@H]2CCCN2C(=O)[C@@H](NC(=O)c2cc3cc(C(F)(F)P(=O)(O)O)ccc3s2)C(C)(C)C)c2ccc(Br)cc2)C(C)(C)C)cc1` [Compound 401] ({Benzothienyl2CO(5-CF2PO3H2)}-[Tle]P[βAla(N-(4-Br-phenyl))][Ava][Tle][Hyp]-{NHBn(4-(4-Me-thiazol-5-yl))}), the DC50 is above 10 µM.
